Data as given in PubChem BioAssay (NCI).
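Cultured in 96-well plates, cells were exposed to test compound for 48 hours across five concentrations. GI50: concentration for 50% inhibition of growth. At the TGI there is no net growth.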

Key:
Test in all cases: NCI tumour cell line growth inhibition, 48 h
786-0 renal = test system: 786-0 renal
A498 renal = test system: A498 renal
A549 NSCLC = test system: A549 NSCLC
ACHN renal = test system: ACHN renal
BT-549 breast = test system: BT-549 breast
CAKI-1 renal = test system: CAKI-1 renal
CCRF-CEM leukemia = test system: CCRF-CEM leukemia
COLO 205 colon = test system: COLO 205 colon
DU-145 prostate = test system: DU-145 prostate
HCC-2998 colon = test system: HCC-2998 colon
HCT-116 colon = test system: HCT-116 colon
HCT-15 colon = test system: HCT-15 colon
HL-60(TB) leukemia = test system: HL-60(TB) leukemia
HOP-62 NSCLC = test system: HOP-62 NSCLC
HOP-92 NSCLC = test system: HOP-92 NSCLC
HS 578T breast = test system: HS 578T breast
HT29 colon = test system: HT29 colon
IGROV1 ovarian = test system: IGROV1 ovarian
K-562 leukemia = test system: K-562 leukemia
KM12 colon = test system: KM12 colon
LOX IMVI melanoma = test system: LOX IMVI melanoma
M14 melanoma = test system: M14 melanoma
MALME-3M melanoma = test system: MALME-3M melanoma
MCF7 breast = test system: MCF7 breast
MDA-MB-231 breast = test system: MDA-MB-231 breast
MDA-MB-435 = test system: MDA-MB-435
MOLT-4 leukemia = test system: MOLT-4 leukemia
NCI-H226 lung = test system: NCI-H226 lung
NCI-H23 lung = test system: NCI-H23 lung
NCI-H460 lung = test system: NCI-H460 lung
NCI-H522 lung = test system: NCI-H522 lung
NCI/ADR-RES ovarian = test system: NCI/ADR-RES ovarian
OVCAR-3 ovarian = test system: OVCAR-3 ovarian
OVCAR-4 ovarian = test system: OVCAR-4 ovarian
OVCAR-5 ovarian = test system: OVCAR-5 ovarian
OVCAR-8 ovarian = test system: OVCAR-8 ovarian
PC-3 prostate = test system: PC-3 prostate
RPMI-8226 leukemia = test system: RPMI-8226 leukemia
RXF 393 renal = test system: RXF 393 renal
SF-268 CNS = test system: SF-268 CNS
SF-295 CNS = test system: SF-295 CNS
SF-539 CNS = test system: SF-539 CNS
SK-MEL-2 melanoma = test system: SK-MEL-2 melanoma
SK-MEL-28 melanoma = test system: SK-MEL-28 melanoma
SK-MEL-5 melanoma = test system: SK-MEL-5 melanoma
SK-OV-3 ovarian = test system: SK-OV-3 ovarian
SN12C renal = test system: SN12C renal
SNB-19 CNS = test system: SNB-19 CNS
SNB-75 CNS = test system: SNB-75 CNS
SR leukemia = test system: SR leukemia
SW-620 colon = test system: SW-620 colon
T-47D breast = test system: T-47D breast
TK-10 renal = test system: TK-10 renal
U251 CNS = test system: U251 CNS
UACC-257 melanoma = test system: UACC-257 melanoma
UACC-62 melanoma = test system: UACC-62 melanoma
UO-31 renal = test system: UO-31 renal

## CC(C)C[C@H](NC(=O)CCn1ccc2ncccc2c1=O)B(O)O
786-0 renal
  GI50: 14 µM
  TGI: > 100 µM
A498 renal
  GI50: 2.66 µM
  TGI: 21.3 µM
A549 NSCLC
  GI50: 36.1 µM
  TGI: > 100 µM
ACHN renal
  GI50: 9.45 µM
  TGI: > 100 µM
BT-549 breast
  GI50: 4.86 µM
  TGI: 23.1 µM
CAKI-1 renal
  GI50: 21.6 µM
  TGI: > 100 µM
CCRF-CEM leukemia
  GI50: 0.308 µM
  TGI: > 26.5 µM
COLO 205 colon
  GI50: 10.3 µM
  TGI: > 100 µM
DU-145 prostate
  GI50: 19.6 µM
  TGI: > 100 µM
HCC-2998 colon
  GI50: 12.9 µM
  TGI: 30.2 µM
HCT-116 colon
  GI50: 3.64 µM
  TGI: 19 µM
HCT-15 colon
  GI50: 28.1 µM
  TGI: > 100 µM
HL-60(TB) leukemia
  GI50: 6.88 µM
  TGI: > 100 µM
HOP-62 NSCLC
  GI50: 21.7 µM
  TGI: > 79 µM
HOP-92 NSCLC
  GI50: 14.5 µM
  TGI: 60.3 µM
HS 578T breast
  GI50: 13.2 µM
  TGI: > 71.7 µM
HT29 colon
  GI50: 6.28 µM
  TGI: > 100 µM
IGROV1 ovarian
  GI50: 36.5 µM
  TGI: > 94.3 µM
K-562 leukemia
  GI50: 13.2 µM
  TGI: > 100 µM
KM12 colon
  GI50: 14.6 µM
  TGI: 37.7 µM
LOX IMVI melanoma
  GI50: 4.53 µM
  TGI: 18.7 µM
M14 melanoma
  GI50: 5.45 µM
  TGI: > 47.3 µM
MALME-3M melanoma
  GI50: 5.2 µM
  TGI: 48.9 µM
MCF7 breast
  GI50: 3.88 µM
  TGI: > 100 µM
MDA-MB-231 breast
  GI50: 9.73 µM
  TGI: 46.6 µM
MDA-MB-435
  GI50: 2.6 µM
  TGI: 8.86 µM
MOLT-4 leukemia
  GI50: 2.9 µM
  TGI: > 28.7 µM
NCI-H226 lung
  GI50: 2.22 µM
  TGI: 6.13 µM
NCI-H23 lung
  GI50: 14.9 µM
  TGI: > 100 µM
NCI-H460 lung
  GI50: 31.9 µM
  TGI: > 100 µM
NCI-H522 lung
  GI50: 4.26 µM
  TGI: 25 µM
NCI/ADR-RES ovarian
  GI50: > 100 µM
  TGI: > 100 µM
OVCAR-3 ovarian
  GI50: 4.1 µM
  TGI: 20.6 µM
OVCAR-4 ovarian
  GI50: 24.9 µM
  TGI: > 100 µM
OVCAR-5 ovarian
  GI50: 23.2 µM
  TGI: > 100 µM
OVCAR-8 ovarian
  GI50: 27.4 µM
  TGI: > 100 µM
PC-3 prostate
  GI50: 35.2 µM
  TGI: > 100 µM
RPMI-8226 leukemia
  GI50: 2.82 µM
  TGI: > 27 µM
RXF 393 renal
  GI50: 3.54 µM
  TGI: 15.2 µM
SF-268 CNS
  GI50: 12.6 µM
  TGI: > 61.2 µM
SF-295 CNS
  GI50: 11.5 µM
  TGI: 43.9 µM
SF-539 CNS
  GI50: 2.96 µM
  TGI: 9.03 µM
SK-MEL-2 melanoma
  GI50: 11 µM
  TGI: > 79.2 µM
SK-MEL-28 melanoma
  GI50: 6.8 µM
  TGI: > 76.7 µM
SK-MEL-5 melanoma
  GI50: 3.97 µM
  TGI: 19.2 µM
SK-OV-3 ovarian
  GI50: > 66 µM
  TGI: > 100 µM
SN12C renal
  GI50: 18.9 µM
  TGI: > 100 µM
SNB-19 CNS
  GI50: 32.6 µM
  TGI: > 100 µM
SNB-75 CNS
  GI50: 14.5 µM
  TGI: 47.5 µM
SR leukemia
  GI50: 3.08 µM
  TGI: > 100 µM
SW-620 colon
  GI50: 4.23 µM
  TGI: > 45.9 µM
T-47D breast
  GI50: 5.31 µM
  TGI: > 55 µM
TK-10 renal
  GI50: 6.44 µM
  TGI: 61.8 µM
U251 CNS
  GI50: 24.9 µM
  TGI: > 100 µM
UACC-257 melanoma
  GI50: 8.25 µM
  TGI: 44.1 µM
UACC-62 melanoma
  GI50: 5.93 µM
  TGI: 61.7 µM
UO-31 renal
  GI50: 19.6 µM
  TGI: > 100 µM

## COc1cc(C2CC(=O)Nc3c2ccc2ccccc32)cc(Br)c1OC (stereo unspecified)
786-0 renal
  GI50: 0.569 µM
  TGI: > 39.3 µM
A498 renal
  GI50: 0.272 µM
  TGI: 2.29 µM
A549 NSCLC
  GI50: 0.549 µM
  TGI: > 49.7 µM
ACHN renal
  GI50: 0.798 µM
  TGI: > 100 µM
BT-549 breast
  GI50: 0.384 µM
  TGI: 17.5 µM
CAKI-1 renal
  GI50: 0.375 µM
  TGI: > 100 µM
CCRF-CEM leukemia
  GI50: 0.292 µM
  TGI: 1.41 µM
COLO 205 colon
  GI50: 0.369 µM
  TGI: 1.35 µM
DU-145 prostate
  GI50: 0.653 µM
  TGI: > 38.2 µM
HCC-2998 colon
  GI50: 0.84 µM
  TGI: > 29.9 µM
HCT-116 colon
  GI50: 0.373 µM
  TGI: > 34.7 µM
HCT-15 colon
  GI50: 0.445 µM
  TGI: > 90.5 µM
HL-60(TB) leukemia
  GI50: 0.212 µM
  TGI: 0.462 µM
HOP-62 NSCLC
  GI50: 0.753 µM
  TGI: > 100 µM
HOP-92 NSCLC
  GI50: 0.176 µM
  TGI: 2.42 µM
HS 578T breast
  GI50: 0.376 µM
  TGI: > 23.2 µM
HT29 colon
  GI50: 0.37 µM
  TGI: 18.2 µM
IGROV1 ovarian
  GI50: 0.86 µM
  TGI: > 42.3 µM
K-562 leukemia
  GI50: 0.349 µM
  TGI: > 75.7 µM
KM12 colon
  GI50: 0.532 µM
  TGI: > 41.2 µM
LOX IMVI melanoma
  GI50: 0.452 µM
  TGI: > 33.5 µM
M14 melanoma
  GI50: 0.308 µM
  TGI: 2.7 µM
MALME-3M melanoma
  GI50: 0.582 µM
  TGI: > 70.6 µM
MCF7 breast
  GI50: 0.343 µM
  TGI: > 40.6 µM
MDA-MB-231 breast
  GI50: 2.83 µM
  TGI: > 46.7 µM
MDA-MB-435
  GI50: 0.138 µM
  TGI: 0.464 µM
MOLT-4 leukemia
  GI50: 0.45 µM
  TGI: 12.4 µM
NCI-H226 lung
  GI50: 6.4 µM
  TGI: > 100 µM
NCI-H23 lung
  GI50: 0.565 µM
  TGI: > 100 µM
NCI-H460 lung
  GI50: 0.368 µM
  TGI: > 20.2 µM
NCI-H522 lung
  GI50: 0.41 µM
  TGI: 8.42 µM
NCI/ADR-RES ovarian
  GI50: 0.279 µM
  TGI: 1.13 µM
OVCAR-3 ovarian
  GI50: 0.309 µM
  TGI: 0.809 µM
OVCAR-4 ovarian
  GI50: 3.64 µM
  TGI: > 100 µM
OVCAR-5 ovarian
  GI50: 2.01 µM
  TGI: > 79.3 µM
OVCAR-8 ovarian
  GI50: 0.772 µM
  TGI: > 51.1 µM
PC-3 prostate
  GI50: 0.49 µM
  TGI: > 100 µM
RPMI-8226 leukemia
  GI50: 0.562 µM
  TGI: 24.1 µM
RXF 393 renal
  GI50: 0.78 µM
  TGI: 7.05 µM
SF-268 CNS
  GI50: 0.933 µM
  TGI: > 100 µM
SF-295 CNS
  GI50: 0.316 µM
SF-539 CNS
  GI50: 0.583 µM
  TGI: 15.1 µM
SK-MEL-2 melanoma
  GI50: 0.695 µM
  TGI: > 100 µM
SK-MEL-28 melanoma
  GI50: 0.805 µM
  TGI: > 100 µM
SK-MEL-5 melanoma
  GI50: 0.414 µM
  TGI: 9.93 µM
SK-OV-3 ovarian
  GI50: 0.507 µM
  TGI: > 22.7 µM
SN12C renal
  GI50: 1.36 µM
  TGI: > 43.6 µM
SNB-19 CNS
  GI50: 11.7 µM
  TGI: > 100 µM
SNB-75 CNS
  GI50: 0.224 µM
  TGI: 2.43 µM
SR leukemia
  GI50: 0.35 µM
  TGI: 16.7 µM
SW-620 colon
  GI50: 0.359 µM
  TGI: > 100 µM
T-47D breast
  GI50: 0.811 µM
  TGI: > 100 µM
TK-10 renal
  GI50: 13.4 µM
  TGI: > 100 µM
U251 CNS
  GI50: 0.433 µM
  TGI: > 37.9 µM
UACC-257 melanoma
  GI50: 0.504 µM
  TGI: 68.1 µM
UACC-62 melanoma
  GI50: 0.54 µM
UO-31 renal
  GI50: 2.24 µM
  TGI: > 34.5 µM
